Where two headings read alike, the source gives them in different places.
Assays:
[1] = Structure determination of released drugs (1H-NMR of day 5 release media); type: physicochemical; conditions: released at day 5, 1H-NMR chemical shifts and integration
Method: Release media from day 5 (time point with the highest drug concentration) were freeze-dried for 24 h at −40° C. and 133×10^−3 mBar (LABCONO Freeze Dry System/Freezon 4.5). The resulting white powder was dissolved in acidic water (5 mL, pH˜1) and extracted with DCM (5×3 mL). DCM was evaporated under reduced pressure and the samples dried under vacuum for 2 days. Solutions of the free drugs (1 and 2) were prepared and treated as described above for the release media. ^1H-NMR spectroscopy was used to confirm the chemical structures of the released drugs.

[2] = system: NCTC clone 929 (strain L) mouse areolar fibroblast cells (L929 cells); conditions: 0.5% DMSO
Method: Polymers and diacids were separately dissolved in dimethyl sulfoxide (DMSO) and diluted with cell media to reach concentrations of 0.10 and 0.05 mg/mL. These solutions were sterilized under UV at λ=254 nm for 900 s (Spectronics Corporation, Westbury, N.Y.) and then allocated to wells in a 96-well plate with 2000 cells/well. DMSO (0.5%) in cell media was used as negative control.
Cell viability was determined using CellTiter 96® Aqueous One Solution Cell Proliferation Assay. After 24 h, 48 h, and 72 h incubation with polymers or diacids, 20 μL of (3-(4,5-dimethylthiazol-2-yl)-5-(3-carboxymethoxyphenyl)-2-(4-sulfophenyl)-2H-tetrazolium) (MTS) reagent was added to each well and further incubated for 2 h at 37° C. The absorbance was then recorded with a microplate reader (Coulter, Boulevard Brea, Calif.) at 492 nm.

chemical structure of drug released from polymer versus free drug [1]	Structure (SMILES)	cell proliferation / viability ([2]; 0.05 mg/mL, 24, 48 and 72 h)	cell proliferation / viability ([2]; 0.10 mg/mL, 24, 48 and 72 h)
preserved	COc1ccc2cc([C@H](C)C(=O)O)ccc2c1 [compound 2, naproxen]		
	CC(C)Cc1ccc(C(C)C(=O)OC(C(=O)O)C(OC(=O)C(C)c2ccc(CC(C)C)cc2)C(=O)O)cc1 (stereo not drawn) [6a, Ibuprofen-tartaric diacid]	normal cell proliferation	normal cell proliferation
	COc1ccc2cc(C(C)C(=O)OC(C(=O)O)C(OC(=O)C(C)c3ccc4cc(OC)ccc4c3)C(=O)O)ccc2c1 (stereo not drawn) [6b, Naproxen-Tartaric Diacid]	normal cell proliferation	normal cell proliferation
preserved	CC(C)Cc1ccc(C(C)C(=O)O)cc1 (stereo not drawn) [compound 1, ibuprofen]		

Reference: patent publication US9144579B2, “Polyesters and methods of use thereof” (Rutgers, The State University of New Jersey, priority 2012, dated 2015)
